15 compounds from ChEMBL document CHEMBL2424655, “Design, synthesis and biological evaluation of peptide derivatives of L-dopa as anti-parkinsonian agents” (2013) can be followed below.

Structures are written as SMILES. Square brackets hold non-standard residues; d marks the D form. Peptide text beside a SMILES is read from it. * marks the point of attachment. Dopa = N[C@@H](Cc1ccc(O)c(O)c1)C(=O)O; αMeF = C[C@](N)(Cc1ccccc1)C(=O)O; Cha = N[C@@H](CC1CCCCC1)C(=O)O; Ac6c = NC1(C(=O)O)CCCCC1; Ac5c = NC1(C(=O)O)CCCC1; Aib = CC(C)(N)C(=O)O; OcHex = C1CCC(O*)CC1; OBn = c1ccc(CO*)cc1; OiPr = CC(C)O*

What all share (assay type): functional
Experiment [1] has as its system Rattus norvegicus. In words: Antiparkinsonian activity in 6-hydroxydopamine lesioned Wistar rat assessed as duration of activity at 63.4 umol/kg, po measured every 10 mins for 240 mins relative to L-DOPA.
The test system of experiment [2] is Rattus norvegicus. Put plainly: Antiparkinsonian activity in 6-hydroxydopamine lesioned Wistar rat assessed as peak activity by measuring contralateral rotations at 63.4 umol/kg, po measured every 10 mins for 240 mins relative to L-DOPA.
For experiment [3], the system named is Rattus norvegicus. Put plainly: Antiparkinsonian activity in 6-hydroxydopamine lesioned Wistar rat assessed as AUC activity by measuring contralateral rotations at 63.4 umol/kg, po measured every 10 mins for 240 mins relative to L-DOPA.
For experiment [4], the system named is Rattus norvegicus. Put plainly: Antiparkinsonian activity in 6-hydroxydopamine lesioned Wistar rat assessed as AUC activity by measuring contralateral rotations at 63.4 umol/kg, ip measured every 10 mins for 240 mins relative to L-DOPA.
Experiment [5] concerns Rattus norvegicus. Put plainly: Antiparkinsonian activity in 6-hydroxydopamine lesioned Wistar rat assessed as duration of activity at 63.4 umol/kg, ip measured every 10 mins for 240 mins relative to L-DOPA.
Experiment [6] has as its system Rattus norvegicus. Put plainly: Antiparkinsonian activity in 6-hydroxydopamine lesioned Wistar rat assessed as peak activity by measuring contralateral rotations at 63.4 umol/kg, ip measured every 10 mins for 240 mins relative to L-DOPA.

With `CC(C)CCOC(=O)[C@H](Cc1ccc(O)c(O)c1)NC(=O)C(C)(C)N.Cl`, the Activity was found to be 49% in the experiment with Rattus norvegicus [1], 59% in the experiment with Rattus norvegicus [2] and 79% in the experiment on Rattus norvegicus [3].

On to `COC(=O)[C@H](Cc1ccc(OC(C)=O)c(OC(C)=O)c1)NC(=O)C(C)(C)N.Cl`, for which the Activity is recorded as 73% in the experiment on Rattus norvegicus [1], 69% in the experiment on Rattus norvegicus [2] and 55% in the experiment on Rattus norvegicus [3].

Regarding `COC(=O)[C@H](Cc1ccc(OC(C)=O)c(OC(C)=O)c1)NC(=O)C1(N)CCCCC1.Cl`, the Activity turned out to be 42% in the experiment on Rattus norvegicus [1], 55% with Rattus norvegicus [2] and 42% in the experiment with Rattus norvegicus [3].

For the compound `COC(=O)[C@H](Cc1ccc(OC(C)=O)c(OC(C)=O)c1)NC(=O)C1(N)CCCC1.Cl`, the Activity with Rattus norvegicus [1] stood at 44%; with Rattus norvegicus [2] it was 61%; with Rattus norvegicus [3], 39%.

As for `COC(=O)[C@H](Cc1ccc(OC(C)=O)c(OC(C)=O)c1)NC(=O)[C@@H](N)CC1CCCCC1.Cl`, the results for the Activity in the experiment with Rattus norvegicus [4], in the experiment with Rattus norvegicus [5] and with Rattus norvegicus [6] were 32%, 27% and 51%, respectively.

Regarding `CC(=O)Oc1ccc(C[C@H](NC(=O)C(C)(C)N)C(=O)O)cc1OC(C)=O.Cl`, the values for the Activity with Rattus norvegicus [1], in the experiment with Rattus norvegicus [2] and in the experiment on Rattus norvegicus [3] were 45%, 66% and 42%, respectively.

Turning to `COC(=O)[C@H](Cc1ccc(O)c(O)c1)NC(=O)C1(N)CCCC1.Cl` (H-[Ac5c]-[Dopa]-OMe), the Activity in the experiment on Rattus norvegicus [1] is given as 97%; with Rattus norvegicus [2] it was 105%; with Rattus norvegicus [3], 78%.

Take `COC(=O)[C@H](Cc1ccc(O)c(O)c1)NC(=O)C1(N)CCCCC1.Cl` (H-[Ac6c]-[Dopa]-OMe): the Activity in the experiment on Rattus norvegicus [1] is on record as 84%; in the experiment with Rattus norvegicus [2], 107%; in the experiment on Rattus norvegicus [3], 88%.

With `CC(C)(N)C(=O)N[C@@H](Cc1ccc(O)c(O)c1)C(=O)OCc1ccccc1.Cl` (H-[Aib]-[Dopa]-OBn), the Activity came out at 38% in the experiment on Rattus norvegicus [1], 71% in the experiment on Rattus norvegicus [2] and 46% with Rattus norvegicus [3].

For `CC(C)(N)C(=O)N[C@@H](Cc1ccc(O)c(O)c1)C(=O)O.Cl` (H-[Aib]-[Dopa]-OH), the Activity in the experiment on Rattus norvegicus [1] was 57%; in the experiment on Rattus norvegicus [2], 80%; in the experiment on Rattus norvegicus [3] it was 65%.

For `COC(=O)[C@H](Cc1ccc(O)c(O)c1)NC(=O)C(C)(C)N.Cl` (H-[Aib]-[Dopa]-OMe), the values for the Activity in the experiment on Rattus norvegicus [4], in the experiment with Rattus norvegicus [5] and in the experiment on Rattus norvegicus [6] were 69%, 63% and 77%, respectively.

With `CC(C)(N)C(=O)N[C@@H](Cc1ccc(O)c(O)c1)C(=O)OC1CCCCC1.Cl` (H-[Aib]-[Dopa]-OcHex), the results for the Activity in the experiment on Rattus norvegicus [1], with Rattus norvegicus [2] and in the experiment with Rattus norvegicus [3] were 70%, 82% and 105%, respectively.

As for `CC(C)OC(=O)[C@H](Cc1ccc(O)c(O)c1)NC(=O)C(C)(C)N.Cl` (H-[Aib]-[Dopa]-OiPr), the results for the Activity with Rattus norvegicus [1], in the experiment with Rattus norvegicus [2] and with Rattus norvegicus [3] were 72%, 149% and 116%, respectively.

With `COC(=O)[C@H](Cc1ccc(O)c(O)c1)NC(=O)[C@@H](N)CC1CCCCC1.Cl` (H-[Cha]-[Dopa]-OMe), the Activity in the experiment with Rattus norvegicus [1] was 45%; with Rattus norvegicus [2], 53%; in the experiment with Rattus norvegicus [3], 40%.

As for `C[C@](N)(Cc1ccccc1)C(=O)N[C@@H](Cc1ccc(O)c(O)c1)C(=O)O.Cl` (H-[αMeF]-[Dopa]-OH), the values for the Activity in the experiment on Rattus norvegicus [1], with Rattus norvegicus [2] and in the experiment on Rattus norvegicus [3] were 40%, 37% and 26%, respectively.
